The target of assay [1] is Dual specificity protein kinase CLK1 (Homo sapiens, UniProt P49759).
The target of another assay is Insulin receptor (Homo sapiens, UniProt P06213).
Another assay concerns the target T1, Ephrin type-A receptor 8 (Homo sapiens, UniProt P29322).
T1 sequence (P29322 whole entry): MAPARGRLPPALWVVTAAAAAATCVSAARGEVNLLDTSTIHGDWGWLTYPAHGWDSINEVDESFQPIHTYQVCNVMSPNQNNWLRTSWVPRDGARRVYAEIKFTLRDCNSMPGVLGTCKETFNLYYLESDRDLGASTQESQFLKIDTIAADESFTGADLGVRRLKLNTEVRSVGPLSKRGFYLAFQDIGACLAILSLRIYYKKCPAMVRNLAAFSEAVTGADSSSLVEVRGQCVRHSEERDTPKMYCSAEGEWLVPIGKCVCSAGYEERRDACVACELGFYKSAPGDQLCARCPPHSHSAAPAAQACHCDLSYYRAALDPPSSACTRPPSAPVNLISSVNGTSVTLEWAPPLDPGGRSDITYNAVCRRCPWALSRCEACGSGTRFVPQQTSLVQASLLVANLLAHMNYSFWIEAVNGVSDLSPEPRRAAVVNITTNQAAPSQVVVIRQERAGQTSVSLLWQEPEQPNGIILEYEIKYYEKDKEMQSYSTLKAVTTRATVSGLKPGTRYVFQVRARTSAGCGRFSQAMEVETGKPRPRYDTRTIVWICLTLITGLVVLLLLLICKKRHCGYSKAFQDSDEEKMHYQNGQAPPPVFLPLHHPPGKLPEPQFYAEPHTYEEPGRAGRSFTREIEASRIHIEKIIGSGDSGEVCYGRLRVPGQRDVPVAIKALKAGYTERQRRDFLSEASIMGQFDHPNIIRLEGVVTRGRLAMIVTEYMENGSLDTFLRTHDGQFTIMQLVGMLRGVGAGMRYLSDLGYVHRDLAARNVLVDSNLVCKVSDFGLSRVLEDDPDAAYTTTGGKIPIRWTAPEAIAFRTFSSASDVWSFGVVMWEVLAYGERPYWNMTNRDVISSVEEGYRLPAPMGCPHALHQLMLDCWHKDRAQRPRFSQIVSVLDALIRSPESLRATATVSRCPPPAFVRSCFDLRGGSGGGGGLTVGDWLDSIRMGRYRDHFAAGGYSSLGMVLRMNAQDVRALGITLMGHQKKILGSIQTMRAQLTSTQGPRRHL

Assay [2] deals with Serine/threonine-protein kinase 38-like (Homo sapiens, UniProt Q9Y2H1).
In assay [3] the target is Tyrosine-protein kinase FRK (Homo sapiens, UniProt P42685).
Assay [4] addresses Tyrosine-protein kinase SYK (Homo sapiens, UniProt P43405).
The target of assay [5] is Mitogen-activated protein kinase 14 (Homo sapiens, UniProt Q16539).
Assay [6] concerns the target T2, Casein kinase I isoform epsilon (Homo sapiens, UniProt P49674).
Assay [7] deals with TRAF2 and NCK-interacting protein kinase (Homo sapiens, UniProt Q9UKE5).
The target of assay [8] is 5'-AMP-activated protein kinase catalytic subunit alpha-1 (Homo sapiens, UniProt Q13131).
The target in assay [9] is Mitogen-activated protein kinase 8 (Homo sapiens, UniProt P45983).
Assay [10] deals with BMP-2-inducible protein kinase (Homo sapiens, UniProt Q9NSY1).
Assay [11] has as its target Mitogen-activated protein kinase 9 (Homo sapiens, UniProt P45984).
Assay [12] has as its target T2, Casein kinase I isoform epsilon. The source holds these as a separate data set.
Assay [13] deals with Tyrosine-protein kinase ABL2 (Homo sapiens, UniProt P42684).
The target in assay [14] is Tyrosine-protein kinase ABL1 (Homo sapiens, UniProt P00519, H396P).
The target in assay [15] is Tyrosine-protein kinase ABL1 (Homo sapiens, UniProt P00519).
For assay [16], the target named is Tyrosine-protein kinase ABL1 (Homo sapiens, UniProt P00519, Q252H).

These results are taken from ChEMBL document CHEMBL1144455, “A small molecule-kinase interaction map for clinical kinase inhibitors” (Nat Biotechnol, 2005).

Sequence of Mitogen-activated protein kinase 9 (P45984 whole entry, canonical isoform): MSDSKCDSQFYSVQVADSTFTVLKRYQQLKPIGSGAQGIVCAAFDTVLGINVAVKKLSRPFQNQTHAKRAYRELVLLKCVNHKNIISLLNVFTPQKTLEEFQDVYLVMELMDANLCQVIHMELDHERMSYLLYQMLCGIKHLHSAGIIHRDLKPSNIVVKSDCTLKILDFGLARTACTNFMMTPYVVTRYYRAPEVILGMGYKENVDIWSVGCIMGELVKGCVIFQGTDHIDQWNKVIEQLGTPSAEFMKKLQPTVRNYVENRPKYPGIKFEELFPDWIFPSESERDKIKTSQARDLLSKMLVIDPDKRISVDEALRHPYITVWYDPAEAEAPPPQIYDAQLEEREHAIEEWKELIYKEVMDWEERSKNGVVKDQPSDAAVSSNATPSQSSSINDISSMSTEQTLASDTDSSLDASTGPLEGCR
Sequence of 5'-AMP-activated protein kinase catalytic subunit alpha-1 (Q13131 whole entry): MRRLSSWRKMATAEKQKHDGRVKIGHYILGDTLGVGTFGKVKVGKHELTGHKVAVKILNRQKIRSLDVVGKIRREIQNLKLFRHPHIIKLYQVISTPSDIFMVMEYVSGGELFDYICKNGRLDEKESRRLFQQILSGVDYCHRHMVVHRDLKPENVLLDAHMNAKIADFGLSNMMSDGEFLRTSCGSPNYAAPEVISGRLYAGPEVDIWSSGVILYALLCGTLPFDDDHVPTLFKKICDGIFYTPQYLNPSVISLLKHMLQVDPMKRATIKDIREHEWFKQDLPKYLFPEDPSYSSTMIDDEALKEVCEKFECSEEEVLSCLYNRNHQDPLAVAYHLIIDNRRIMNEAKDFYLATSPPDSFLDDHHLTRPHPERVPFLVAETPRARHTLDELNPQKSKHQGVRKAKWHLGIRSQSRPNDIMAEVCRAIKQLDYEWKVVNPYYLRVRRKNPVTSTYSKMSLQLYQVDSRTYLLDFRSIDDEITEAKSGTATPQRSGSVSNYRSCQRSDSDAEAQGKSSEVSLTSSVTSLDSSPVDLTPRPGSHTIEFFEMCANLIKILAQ
Sequence of Serine/threonine-protein kinase 38-like (Q9Y2H1 whole entry): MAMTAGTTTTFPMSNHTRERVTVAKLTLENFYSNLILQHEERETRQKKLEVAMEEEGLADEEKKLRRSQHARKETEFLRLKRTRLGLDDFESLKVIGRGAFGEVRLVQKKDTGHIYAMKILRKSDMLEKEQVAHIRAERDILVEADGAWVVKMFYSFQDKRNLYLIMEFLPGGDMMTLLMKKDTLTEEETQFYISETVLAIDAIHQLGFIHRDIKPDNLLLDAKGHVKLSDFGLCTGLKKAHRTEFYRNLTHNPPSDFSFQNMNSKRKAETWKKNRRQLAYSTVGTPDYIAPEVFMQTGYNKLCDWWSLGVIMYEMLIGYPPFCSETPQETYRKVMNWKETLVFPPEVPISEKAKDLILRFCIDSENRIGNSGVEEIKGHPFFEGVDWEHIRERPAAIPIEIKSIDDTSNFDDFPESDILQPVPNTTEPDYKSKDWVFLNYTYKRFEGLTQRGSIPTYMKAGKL
Sequence of Mitogen-activated protein kinase 8 (P45983 whole entry): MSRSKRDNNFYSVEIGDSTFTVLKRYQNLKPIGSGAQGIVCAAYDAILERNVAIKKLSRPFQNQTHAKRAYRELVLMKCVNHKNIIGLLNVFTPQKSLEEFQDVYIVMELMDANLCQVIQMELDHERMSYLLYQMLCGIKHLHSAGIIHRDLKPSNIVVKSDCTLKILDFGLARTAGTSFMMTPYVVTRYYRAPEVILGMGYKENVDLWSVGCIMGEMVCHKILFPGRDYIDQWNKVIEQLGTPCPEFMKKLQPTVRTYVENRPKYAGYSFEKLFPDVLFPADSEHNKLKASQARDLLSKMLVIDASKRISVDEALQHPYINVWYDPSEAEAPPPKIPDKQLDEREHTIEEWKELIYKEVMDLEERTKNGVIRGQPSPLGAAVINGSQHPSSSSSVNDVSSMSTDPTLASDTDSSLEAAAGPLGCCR
Sequence of Dual specificity protein kinase CLK1 (P49759 whole entry): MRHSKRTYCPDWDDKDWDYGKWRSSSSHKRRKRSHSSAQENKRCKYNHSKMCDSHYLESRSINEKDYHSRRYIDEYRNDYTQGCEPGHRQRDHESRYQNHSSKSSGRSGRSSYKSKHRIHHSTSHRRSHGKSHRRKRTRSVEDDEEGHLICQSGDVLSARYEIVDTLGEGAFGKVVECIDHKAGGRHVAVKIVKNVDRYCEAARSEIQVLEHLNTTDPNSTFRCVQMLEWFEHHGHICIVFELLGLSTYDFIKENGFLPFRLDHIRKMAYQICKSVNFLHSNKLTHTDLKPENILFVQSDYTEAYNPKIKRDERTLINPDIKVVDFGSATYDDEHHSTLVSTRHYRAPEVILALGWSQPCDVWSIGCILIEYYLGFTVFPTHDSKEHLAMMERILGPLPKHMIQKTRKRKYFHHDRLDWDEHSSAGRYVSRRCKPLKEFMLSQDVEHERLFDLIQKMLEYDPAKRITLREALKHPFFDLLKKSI
Sequence of BMP-2-inducible protein kinase (Q9NSY1 whole entry): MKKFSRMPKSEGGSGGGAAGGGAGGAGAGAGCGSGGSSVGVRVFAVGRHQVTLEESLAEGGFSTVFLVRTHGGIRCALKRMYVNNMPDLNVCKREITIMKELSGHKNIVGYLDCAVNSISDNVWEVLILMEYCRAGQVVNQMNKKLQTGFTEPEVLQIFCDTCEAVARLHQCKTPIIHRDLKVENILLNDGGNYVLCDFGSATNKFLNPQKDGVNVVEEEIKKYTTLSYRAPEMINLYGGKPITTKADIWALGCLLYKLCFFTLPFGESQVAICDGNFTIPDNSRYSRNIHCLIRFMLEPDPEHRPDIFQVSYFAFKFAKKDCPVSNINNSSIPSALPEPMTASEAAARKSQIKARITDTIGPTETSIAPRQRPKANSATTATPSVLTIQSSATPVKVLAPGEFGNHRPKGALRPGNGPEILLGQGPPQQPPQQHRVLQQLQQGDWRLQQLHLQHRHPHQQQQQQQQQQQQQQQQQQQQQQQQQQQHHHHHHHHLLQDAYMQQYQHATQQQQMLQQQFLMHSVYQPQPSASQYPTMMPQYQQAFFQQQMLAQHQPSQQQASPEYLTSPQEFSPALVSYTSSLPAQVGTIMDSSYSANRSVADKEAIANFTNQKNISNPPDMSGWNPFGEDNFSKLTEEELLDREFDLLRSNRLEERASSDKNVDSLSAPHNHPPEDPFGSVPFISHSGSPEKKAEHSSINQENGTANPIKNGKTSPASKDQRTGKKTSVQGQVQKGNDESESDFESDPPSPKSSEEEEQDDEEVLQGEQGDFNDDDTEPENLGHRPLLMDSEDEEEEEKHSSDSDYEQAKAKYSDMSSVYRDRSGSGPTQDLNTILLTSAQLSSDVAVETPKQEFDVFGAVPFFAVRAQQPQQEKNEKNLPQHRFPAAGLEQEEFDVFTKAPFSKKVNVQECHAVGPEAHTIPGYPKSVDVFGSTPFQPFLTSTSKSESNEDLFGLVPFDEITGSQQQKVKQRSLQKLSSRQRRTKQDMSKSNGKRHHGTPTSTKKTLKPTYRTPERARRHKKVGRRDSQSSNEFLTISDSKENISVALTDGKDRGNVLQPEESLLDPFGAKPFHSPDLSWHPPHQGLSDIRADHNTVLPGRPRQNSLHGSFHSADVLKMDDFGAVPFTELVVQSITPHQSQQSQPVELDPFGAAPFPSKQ
Sequence of TRAF2 and NCK-interacting protein kinase (Q9UKE5 whole entry): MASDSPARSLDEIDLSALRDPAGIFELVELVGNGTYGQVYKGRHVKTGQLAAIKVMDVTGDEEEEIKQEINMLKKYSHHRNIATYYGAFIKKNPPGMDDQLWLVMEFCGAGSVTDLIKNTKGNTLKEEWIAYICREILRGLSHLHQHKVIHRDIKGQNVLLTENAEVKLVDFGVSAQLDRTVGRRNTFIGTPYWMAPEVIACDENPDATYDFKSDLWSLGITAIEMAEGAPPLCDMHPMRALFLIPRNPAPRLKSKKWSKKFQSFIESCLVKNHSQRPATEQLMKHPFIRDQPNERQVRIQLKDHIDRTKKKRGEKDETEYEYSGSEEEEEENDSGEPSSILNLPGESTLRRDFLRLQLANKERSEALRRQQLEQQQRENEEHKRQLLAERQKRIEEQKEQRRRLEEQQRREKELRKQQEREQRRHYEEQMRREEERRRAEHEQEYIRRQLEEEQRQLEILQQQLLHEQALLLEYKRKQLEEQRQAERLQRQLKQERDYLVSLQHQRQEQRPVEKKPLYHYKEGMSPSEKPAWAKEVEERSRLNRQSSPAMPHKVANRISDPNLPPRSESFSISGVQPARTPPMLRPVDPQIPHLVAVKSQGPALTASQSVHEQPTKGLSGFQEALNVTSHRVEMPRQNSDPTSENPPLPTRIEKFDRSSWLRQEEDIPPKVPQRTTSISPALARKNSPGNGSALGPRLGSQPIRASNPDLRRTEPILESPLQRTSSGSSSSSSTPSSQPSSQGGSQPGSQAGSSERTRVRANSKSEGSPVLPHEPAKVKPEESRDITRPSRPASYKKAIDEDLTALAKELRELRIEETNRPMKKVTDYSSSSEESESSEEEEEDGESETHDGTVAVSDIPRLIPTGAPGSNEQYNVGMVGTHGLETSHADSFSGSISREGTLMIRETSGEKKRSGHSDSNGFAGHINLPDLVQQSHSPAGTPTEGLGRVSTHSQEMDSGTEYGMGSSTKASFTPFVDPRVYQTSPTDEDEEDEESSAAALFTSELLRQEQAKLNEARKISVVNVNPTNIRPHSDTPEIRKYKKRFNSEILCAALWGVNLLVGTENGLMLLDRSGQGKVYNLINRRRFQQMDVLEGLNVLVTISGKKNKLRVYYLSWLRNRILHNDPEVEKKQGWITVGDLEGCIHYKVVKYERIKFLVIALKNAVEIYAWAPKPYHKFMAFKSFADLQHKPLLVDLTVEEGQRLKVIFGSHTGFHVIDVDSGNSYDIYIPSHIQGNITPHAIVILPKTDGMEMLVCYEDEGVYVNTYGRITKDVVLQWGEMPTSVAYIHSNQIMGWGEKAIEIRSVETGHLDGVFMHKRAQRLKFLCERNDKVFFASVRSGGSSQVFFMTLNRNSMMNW

`C#Cc1cccc(Nc2ncnc3cc(OCCOC)c(OCCOC)cc23)c1` [ERLOTINIB]: the dissociation constant Kd entry (in assay [1]; at Insulin receptor; on Ephrin type-A receptor 8; in [2]; in assay [3]; in assay [4]) was “Not Active” throughout. Besides, the Kd result in assay [5], in assay [6], in [7], in assay [8] and in assay [9] was “Not Active” each time.

In the case of `Cc1ccc(NC(=O)c2ccc(CN3CCN(C)CC3)cc2)cc1Nc1nccc(-c2cccnc2)n1` [IMATINIB], the dissociation constant Kd result (in assay [10]; on Insulin receptor; in [2]; in assay [6]; in assay [7]; in assay [8]) was “Not Active” throughout.

`O=c1ncn2nc(Sc3ccc(F)cc3F)ccc2c1-c1c(Cl)cccc1Cl` [NEFLAMAPIMOD]: the dissociation constant (Kd) entry (in [10]; in [1]; on Insulin receptor; in assay [11]; in [2]; in [4]) was “Not Active” throughout. Further, the dissociation constant Kd result in assay [6], in [7], in [8] and in assay [9] was “Not Active” in each case.

On to `CCOc1cc2ncc(C#N)c(Nc3ccc(F)c(Cl)c3)c2cc1NC(=O)/C=C/CN(C)C` [PELITINIB], for which the Kd (commonly a measure of binding affinity in units of concentration) on Insulin receptor was “Not Active”; in assay [11], “Not Active”; in assay [5] it was “Not Active”; in assay [8], “Not Active”; in assay [12], 97 nM; in assay [9], “Not Active”.

On to `Oc1ccc(-c2nc(-c3ccc(F)cc3)c(-c3ccncc3)[nH]2)cc1` [SB-202190], for which the Kd entry (in assay [10]; in assay [1]; at Insulin receptor; in [13]; on Ephrin type-A receptor 8; in [2]) was “Not Active” each time. The Kd result in assay [14] is “Not Active”; in assay [4], “Not Active”; in [15], “Not Active”; in assay [16] it was “Not Active”; in assay [8], “Not Active”; in assay [12], 400 nM.

Turning to `C[S+]([O-])c1ccc(-c2nc(-c3ccc(F)cc3)c(-c3ccncc3)[nH]2)cc1` (stereo not drawn) [SB-203580], the equilibrium dissociation constant (Kd) entry (in assay [10]; in [1]; on Insulin receptor; in [13]; at Ephrin type-A receptor 8; in [2]) was “Not Active” in each case. For the same compound, the equilibrium dissociation constant (Kd) entry in [14], in [4], in [15], in assay [16] and in assay [8] was “Not Active” in each case.

For the compound `CC[C@H](CO)Nc1nc(NCc2ccccc2)c2ncn(C(C)C)c2n1` [SELICICLIB], the Kd entry (in assay [10]; on Insulin receptor; in [11]; in assay [13]; at Ephrin type-A receptor 8; in assay [2]) was “Not Active” each time. Moreover, the Kd result in assay [14], in assay [3], in assay [4], in assay [15], in [5] and in assay [16] was “Not Active” throughout. In addition, the equilibrium dissociation constant (Kd) result in assay [7], in assay [8] and in [9] was “Not Active” throughout.

Regarding `Oc1c2ccccc2c2c3c(cccc13)N=N2` [SP-600125], the equilibrium dissociation constant (Kd) entry (in assay [1]; at Insulin receptor; in assay [13]; on Ephrin type-A receptor 8; in assay [14]; in assay [3]) was “Not Active” each time. For the same compound, the dissociation constant Kd entry in assay [15] is “Not Active”; in [5], “Not Active”; in [16], “Not Active”; in assay [8] it was “Not Active”; in assay [12], 3100 nM.

`COc1cc2c(N3CCN(C(=O)Nc4ccc(OC(C)C)cc4)CC3)ncnc2cc1OCCCN1CCCCC1` [TANDUTINIB]: the Kd result (in assay [10]; on Insulin receptor; in [11]; in [13]; on Ephrin type-A receptor 8; in [2]) was “Not Active” each time. The equilibrium dissociation constant (Kd) entry in assay [14], in assay [3], in assay [4], in assay [15], in assay [5] and in [6] was “Not Active” in each case. The dissociation constant (Kd) result in assay [16], in assay [7], in assay [8] and in [9] was “Not Active” each time.
